Results from US3965109A, “Certain aryl amino pyridines” (priority 1971, dated 1976).

Legend:
Aphis fabae = experiment: Pest toxicity test; assay type: in vivo; conditions: 0.1% by weight; broad bean; 2 days
[1] = tested on: Phytophthora infestans (tomato); assay type: in vivo; conditions: 100 ppm spray and drench; 3 days
Megoura viceae = experiment: Pest toxicity test; assay type: in vivo; conditions: 0.1% by weight; broad bean; 2 days
[2] = tested on: Aedes aegypti (mosquito adults); experiment: Pest toxicity test; assay type: in vivo; conditions: 0.01% by weight; plywood; 1 day
[3] = tested on: Phaedon cochleariae (mustard beetles); experiment: Pest toxicity test; assay type: in vivo
[4] = tested on: Aedes aegypti (mosquito larvae); experiment: Pest toxicity test; assay type: in vivo; conditions: 0.01% by weight; water; 1 day
[5] = tested on: Puccinia recondita (wheat); experiment: Fungicidal test against foliar disease A (foliage spray plus soil drench); assay type: in vivo; conditions: 100 ppm spray and drench; 10 days
[6] = tested on: Pieris brassicae (cabbage white caterpillars); experiment: Pest toxicity test; assay type: in vivo; conditions: 0.1% by weight, 2 days
[7] = tested on: Plutella maculipennis (diamond back moth larvae); experiment: Pest toxicity test; assay type: in vivo
[8] = tested on: Musca domestica (houseflies); experiment: Pest toxicity test, contact test; assay type: in vivo; conditions: 0.1% by weight; milk/sugar; 2 days; flies sprayed directly
Uncinula necator (vine) = experiment: Fungicidal test against foliar disease D (foliage spray plus soil drench); assay type: in vivo; conditions: 100 ppm spray and drench; 10 days
[9] = tested on: Tetranychus telarius (red spider mites, adults); experiment: Pest toxicity test; assay type: in vivo; conditions: 0.1% by weight; French bean; 3 days
[10] = tested on: Plasmopara viticola (vine); experiment: Fungicidal test against foliar disease C (foliage spray plus soil drench); assay type: in vivo; conditions: 100 ppm spray and drench; 10 days
[11] = tested on: Piricularia oryzae (rice); assay type: in vivo; conditions: 100 ppm spray and drench; 7 days
[12] = tested on: Tetranychus telarius (red spider mites, eggs); experiment: Pest toxicity test; assay type: in vivo; conditions: 0.1% by weight; French bean; 3 days
[13] = tested on: Agriolimax reticulatus (slugs); experiment: Molluscicidal activity test; assay type: in vivo, Agriolimax reticulatus (Mull); conditions: pellet with 4% by weight; 6 days; 10°C
Procedure: A weighed sample of the compound under test was dissolved in 0.5 c.c. of an ethanol and acetone mixture 50:50 v/v). The solution was diluted with 0.5 cc water and poured onto a calf feeding pellet in a glass Petri dish. The pellet was then air dried for 24 hours. The weight of compound used was chosen so that the dried pellet contained 4% by weight of the active ingredient. Two replicates each consisting of a plastic Petri dish containing a pellet, 2 slugs, and a moistened filter paper to maintain a high relative humidity were used in each test. The dishes were left in a cold room (10°C.) After 6 days the kill was assessed.
The slugs used were Agriolimax reticulatus (Mull), and they had been starved for 24 hours before the commencement of the tests.

Lettuce = experiment: Herbicidal test, pre- and post-emergence; assay type: in vivo; conditions: 10 kg/ha; scale 0 to 3 (complete kill)
Barley = experiment: Further herbicidal test, various rates; assay type: in vivo; conditions: scale 0 to 5 (complete kill)
Pea = experiment: Further herbicidal test, various rates; assay type: in vivo; conditions: scale 0 to 5 (complete kill)
Carrot = experiment: Further herbicidal test, various rates; assay type: in vivo; conditions: scale 0 to 5 (complete kill)
Tomato = experiment: Herbicidal test, pre- and post-emergence; assay type: in vivo; conditions: 10 kg/ha; scale 0 to 3 (complete kill)
Oat = experiment: Further herbicidal test, various rates; assay type: in vivo; conditions: scale 0 to 5 (complete kill)
Rice = experiment: Further herbicidal test, various rates; assay type: in vivo; conditions: scale 0 to 5 (complete kill)
Kale = experiment: Further herbicidal test, various rates; assay type: in vivo; conditions: scale 0 to 5 (complete kill)
Onion = experiment: Further herbicidal test, various rates; assay type: in vivo; conditions: scale 0 to 5 (complete kill)
Wheat = experiment: Herbicidal test, pre- and post-emergence; assay type: in vivo; conditions: 10 kg/ha; scale 0 to 3 (complete kill)
Sugar beet = experiment: Further herbicidal test, various rates; assay type: in vivo; conditions: scale 0 to 5 (complete kill)
Maize = experiment: Herbicidal test, pre- and post-emergence; assay type: in vivo; conditions: 10 kg/ha; scale 0 to 3 (complete kill)
[14] = 0.1% by weight, mustard/paper, 2 days

Compound: Fc1nc(F)c(Cl)c(Nc2c(Cl)c(Cl)c(Cl)c(Cl)c2Cl)c1Cl [Compound 9, 3,5-Dichloro-2,6-difluoro-4(pentachloroanilino)pyridine]
- Mortality grading (kill) (Aphis fabae): 0 (O represents less than 30% kill)
- Amount of disease grading, disease B [1]: 0 (61 to 100)
- Mortality grading (kill) (Megoura viceae): 0 (O represents less than 30% kill)
- Mortality grading (kill) [2]: 0 (O represents less than 30% kill)
- Mortality grading (kill) ([3]; in vivo): 1 (key: O represents less than 30% kill; 1 represents 30 - 49% kill; 2 represents 60 - 90% kill; 3 represents over 90% kill; C indicates a chemosterilant effect.; A indicates an antifeeding effect.)
- Mortality grading (kill) [4]: 3 (3 represents over 90% kill)
- Amount of disease grading, disease A [5]: 3 (0 to 5)
- Mortality grading (kill) [6]: 0 (O represents less than 30% kill)
- Mortality grading (kill) ([7]; in vivo): 3 (key: O represents less than 30% kill; 1 represents 30 - 49% kill; 2 represents 60 - 90% kill; 3 represents over 90% kill; C indicates a chemosterilant effect.; A indicates an antifeeding effect.)
- Mortality grading (kill), contact test [8]: 3 (3 represents over 90% kill)
- Amount of disease grading, disease D (Uncinula necator (vine)): 3 (0 to 5)
- Mortality grading (kill) [9]: 3 (3 represents over 90% kill)
- Amount of disease grading, disease C [10]: 0 (61 to 100)
- Amount of disease grading, disease E [11]: 3 (0 to 5)

Compound: Fc1nc(F)c(Cl)c(Nc2c(Cl)c(F)c(Cl)c(F)c2Cl)c1Cl [Compound 43, 3,5-Dichloro-2,6-difluoro-4(3,5-difluoro-2,4,6-trichloroanilino) pyridine]
- Mortality grading (kill) [12]: 3 (3 represents over 90% kill)
- Mortality grading (kill) (Aphis fabae): 3 (3 represents over 90% kill)
- % Kill of slugs [13]: 100%
- Damage to plants, post-emergence (Lettuce): 3
- Damage to plants, pre-emergence (Lettuce): 3
- Damage to plants, post-emergence (Barley; 5 kg/hectare): 3
- Damage to plants, pre-emergence (Barley; 5 kg/hectare): 1
- Damage to plants, post-emergence (Pea; 5 kg/hectare): 5
- Damage to plants, pre-emergence (Pea; 5 kg/hectare): 0
- Damage to plants, post-emergence (Carrot; 5 kg/hectare): 5
- Damage to plants, pre-emergence (Carrot; 5 kg/hectare): 0
- Mortality grading (kill) (Megoura viceae): 3 (3 represents over 90% kill)
- Damage to plants, post-emergence (Tomato): 3
- Damage to plants, pre-emergence (Tomato): 1
- Damage to plants, post-emergence (Oat; 5 kg/hectare): 4
- Damage to plants, pre-emergence (Oat; 5 kg/hectare): 0
- Mortality grading (kill) [2]: 0 (O represents less than 30% kill)
- Damage to plants, post-emergence (Rice; 5 kg/hectare): 1
- Damage to plants, pre-emergence (Rice; 5 kg/hectare): 0
- Mortality grading (kill) ([3]; in vivo): 0 (key: O represents less than 30% kill; 1 represents 30 - 49% kill; 2 represents 60 - 90% kill; 3 represents over 90% kill; C indicates a chemosterilant effect.; A indicates an antifeeding effect.)
- Mortality grading (kill) [4]: 3 (3 represents over 90% kill)
- Damage to plants, post-emergence (Kale; 5 kg/hectare): 5
- Damage to plants, pre-emergence (Kale; 5 kg/hectare): 1
- Mortality grading (kill) [6]: 3 (3 represents over 90% kill)
- Damage to plants, pre-emergence (Onion; 5 kg/hectare): 0
- Damage to plants, post-emergence (Wheat): 0
- Damage to plants, pre-emergence (Wheat): 1
- Mortality grading (kill) ([7]; in vivo): 2 (key: O represents less than 30% kill; 1 represents 30 - 49% kill; 2 represents 60 - 90% kill; 3 represents over 90% kill; C indicates a chemosterilant effect.; A indicates an antifeeding effect.)
- Mortality grading (kill), contact test [8]: 3 (3 represents over 90% kill)
- Damage to plants, post-emergence (Sugar beet; 5 kg/hectare): 5
- Damage to plants, pre-emergence (Sugar beet; 5 kg/hectare): 0
- Amount of disease grading, disease D (Table 4) (Uncinula necator (vine)): 3 (0 to 5)
- Damage to plants, post-emergence (Maize): 2
- Damage to plants, pre-emergence (Maize): 0
- Mortality grading (kill) [9]: 3 (3 represents over 90% kill)

Compound: N#Cc1cc([N+](=O)[O-])ccc1Nc1c(Cl)c(F)nc(F)c1Cl [Compound 26, 4(2-Cyano-4-nitroanilino)-3,5-dichloro-2,6-difluoropyridine]
- Amount of disease grading, disease B (Table 4) [1]: 3 (0 to 5)
- Damage to plants, post-emergence (Lettuce): 3
- Damage to plants, pre-emergence (Lettuce): 3
- Damage to plants, post-emergence (Tomato): 0
- Damage to plants, pre-emergence (Tomato): 3
- Damage to plants, pre-emergence (Wheat): 1
- Damage to plants, post-emergence (Maize): 0
- Damage to plants, pre-emergence (Maize): 0
- Amount of disease grading, disease C (Table 4) [10]: 3 (0 to 5)
- Amount of disease grading, disease E (Table 4) [11]: 0 (61 to 100)

Compound: O=[N+]([O-])c1ccc(Nc2c(F)c(F)nc(F)c2Cl)c(C(F)(F)F)c1 [Compound 32, 3-Chloro-4(4-nitro-2-trifluoromethylanilino)-2,5,6-trifluoropyridine]
- Mortality grading (kill) [12]: 3 (3 represents over 90% kill)
- Mortality grading (kill) (Aphis fabae): 3 (3 represents over 90% kill)
- % Kill of slugs [13]: 100%
- Damage to plants, post-emergence (Lettuce): 3
- Damage to plants, pre-emergence (Lettuce): 3
- Damage to plants, post-emergence (Barley; 1 kg/hectare): 1
- Damage to plants, pre-emergence (Barley; 1 kg/hectare): 4
- Damage to plants, post-emergence (Barley; 5 kg/hectare): 1
- Damage to plants, pre-emergence (Barley; 5 kg/hectare): 4
- Damage to plants, post-emergence (Pea; 1 kg/hectare): 3
- Damage to plants, pre-emergence (Pea; 1 kg/hectare): 3
- Damage to plants, post-emergence (Pea; 5 kg/hectare): 2
- Damage to plants, pre-emergence (Pea; 5 kg/hectare): 5
- Damage to plants, post-emergence (Carrot; 1 kg/hectare): 2
- Damage to plants, pre-emergence (Carrot; 1 kg/hectare): 3
- Damage to plants, post-emergence (Carrot; 5 kg/hectare): 4
- Damage to plants, pre-emergence (Carrot; 5 kg/hectare): 5
- Mortality grading (kill) (Megoura viceae): 0 (O represents less than 30% kill)
- Damage to plants, post-emergence (Tomato): 3
- Damage to plants, pre-emergence (Tomato): 3
- Damage to plants, post-emergence (Oat; 1 kg/hectare): 1
- Damage to plants, pre-emergence (Oat; 1 kg/hectare): 3
- Damage to plants, post-emergence (Oat; 5 kg/hectare): 0
- Damage to plants, pre-emergence (Oat; 5 kg/hectare): 4
- Mortality grading (kill) [2]: 2 (2 represents 60 - 90% kill)
- Damage to plants, post-emergence (Rice; 1 kg/hectare): 0
- Damage to plants, pre-emergence (Rice; 1 kg/hectare): 4
- Damage to plants, post-emergence (Rice; 5 kg/hectare): 0
- Damage to plants, pre-emergence (Rice; 5 kg/hectare): 5
- Mortality grading (kill) [3, 14]: 0 (O represents less than 30% kill)
- Mortality grading (kill) [4]: 3 (3 represents over 90% kill)
- Damage to plants, post-emergence (Kale; 1 kg/hectare): 5
- Damage to plants, pre-emergence (Kale; 1 kg/hectare): 4
- Damage to plants, post-emergence (Kale; 5 kg/hectare): 4
- Damage to plants, pre-emergence (Kale; 5 kg/hectare): 5
- Amount of disease grading, disease A (Table 4) [5]: 3 (0 to 5)
- Mortality grading (kill) [6]: 3 (3 represents over 90% kill)
- Damage to plants, post-emergence (Onion; 1 kg/hectare): 1
- Damage to plants, post-emergence (Onion; 5 kg/hectare): 0
- Damage to plants, pre-emergence (Onion; 5 kg/hectare): 5
- Damage to plants, post-emergence (Wheat): 0
- Damage to plants, pre-emergence (Wheat): 3
- Mortality grading (kill) [7, 14]: 2 (2 represents 60 - 90% kill)
- Damage to plants, post-emergence (Sugar beet; 1 kg/hectare): 5
- Damage to plants, pre-emergence (Sugar beet; 1 kg/hectare): 4
- Damage to plants, post-emergence (Sugar beet; 5 kg/hectare): 5
- Damage to plants, pre-emergence (Sugar beet; 5 kg/hectare): 5
- Amount of disease grading, disease D (Table 4) (Uncinula necator (vine)): 3 (0 to 5)
- Damage to plants, post-emergence (Maize): 0
- Damage to plants, pre-emergence (Maize): 1
- Mortality grading (kill) [9]: 3 (3 represents over 90% kill)
- Amount of disease grading, disease C (Table 4) [10]: 3 (0 to 5)
